Laboratory results reported in PMC4499129, “DNA3′pp5′G de-capping activity of aprataxin: effect of cap nucleoside analogs and structural basis for guanosine recognition” (Nucleic Acids Research, 2015).

Key:
Aprataxin-(33-232) = target: T1, Aprataxin-(33-232) (Schizosaccharomyces pombe, UniProt O74859); test: X-ray crystal structure, […] Å; assay type: binding; details: co-crystallised with 5 mM GMP, pH 8.0, active site of protomer B
T1 construct: gene hnt3; catalytic domain aa 33-232 (HIT domain + zinc finger), His10Smt3 tag cut by Ulp1, tag-free; E. coli BL21(DE3); two protomers per asymmetric unit
T1 sequence (O74859 33-232): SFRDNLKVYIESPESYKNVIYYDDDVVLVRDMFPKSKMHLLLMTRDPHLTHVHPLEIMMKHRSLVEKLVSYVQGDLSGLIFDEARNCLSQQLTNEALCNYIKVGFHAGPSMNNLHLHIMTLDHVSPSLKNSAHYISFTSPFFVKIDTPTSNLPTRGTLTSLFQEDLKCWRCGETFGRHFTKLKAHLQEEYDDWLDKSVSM

[1] = target: T2, aprataxin-(33-232), catalytic domain (HIT + Zn finger) (Schizosaccharomyces pombe, UniProt O74859 33-232); test: X-ray crystallography (2.25 A, P321); Zn2+, guanosine in active site; complementary 3'-PO4 strand … was in the mix but not in the crystal; Crystallization: aprataxin-(33-232) with 5 mM guanosine and 1.2 mM of each 10-mer, mixed with 15% PEG-3350, 0.15 M magnesium acetate; pH and temperature not given in the material; details: protein: recombinant; chain copies: 2; two copies of the same strand; blunt 10-nt duplex, 8/10 mismatches, only terminal G:C pairs canonical
T2 sequence: T1 sequence (O74859 33-232)

Nc1nc2c(ncn2[C@@H]2O[C@H](CO)[C@@H](O)[C@H]2O)c(=O)[nH]1 [guanosine]
X-ray crystal structure, 1.5 Å (Aprataxin-(33-232); anti conformation crystal, grown with 5 mM GMP (no guanosine added), guanosine modelled in active site of protomer A, anti conformatio): Difference density allowed placement of guanosine in the active site of the A protomer

Nc1nc2c(ncn2[C@@H]2O[C@H](COP(=O)(O)O)[C@@H](O)[C@H]2O)c(=O)[nH]1 [GMP]
X-ray crystal structure, 1.5 Å (Aprataxin-(33-232); anti conformation): The refined model included guanosine in the active site of the A protomer and GMP

B1: 10-mer self-paired mismatched duplex HO-GAATCATAAC-OH (dsDNA)
DNA 1: GAATCATAAC
DNA 2: GAATCATAAC
modifications: 5'-OH and 3'-OH ends
binding result [1]: binds
